# Measurements reported in US20240174603A1 (Rappta Therapeutics Oy, priority 2021, published 2024).
# Tested on: LNCaP cells
# Test: LNCaP cell viability assay (MTS)
# Format: cell-based
# Settings: Homo sapiens, LNCaP cell line, 48 hours
# Outline: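 LNCaP cells (5000/well) treated 24 h after plating with compound at 1–80 µM for 48 h. Relative cell number read by MTS; GI50 from four-parameter variable-slope log(inhibitor) fit with bottom constrained to zero.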
row,SMILES,GI50 [µM]
1,"CN(C)CC(NS(=O)(=O)c1ccc(OC2CC2)cc1)c1ccc(Cl)c(Cl)c1 (stereo not drawn) [Compound 154, 4-cyclopropoxy-N-(1-(3,4-dichlorophenyl)-2-(dimethylamino)ethyl)benzenesulfonamide]",53.8

# Same assay, conditions: Homo sapiens, LNCaP, 48 h, LNCaP cell line
row,SMILES,GI50 [µM]
1,"COC(=O)[C@H](Cc1ccc(Cl)c(Cl)c1)NS(=O)(=O)c1ccc(OC(F)(F)F)cc1 [Compound 40, Methyl (S)-3-(3,4-dichlorophenyl)-2-((4-(trifluoromethoxy)phenyl)sulfonamido)propanoate]",57.2
2,"COC(=O)CC(NS(=O)(=O)c1ccc(OC(F)(F)F)cc1)C1CCCCC1 (stereo not drawn) [Compound 37, Methyl 3-cyclohexyl-3-((4-(trifluoromethoxy)phenyl)sulfonamido)propanoate]",60
3,"CN(C)CC(NS(=O)(=O)c1ccc(OC(F)(F)F)c(Cl)c1)c1ccc(Cl)cc1 (stereo not drawn) [Compound 192, 3-chloro-N-(1-(4-chlorophenyl)-2-(dimethylamino)ethyl)-4-(trifluoromethoxy)benzenesulfonamide]",14.4
4,"CN(C)CC(NS(=O)(=O)c1ccc(Oc2ccc(F)cc2)cc1)c1ccc(Cl)c(Cl)c1 (stereo not drawn) [Compound 221, N-(1-(3,4-dichlorophenyl)-2-(dimethylamino)ethyl)-4-(4-fluorophenoxy)benzenesulfonamide]",26.6
5,"CN(C)CC(NS(=O)(=O)c1ccc(-c2ccccn2)cc1)c1ccc(Cl)c(Cl)c1 (stereo not drawn) [Compound 218, N-(1-(3,4-dichlorophenyl)-2-(dimethylamino)ethyl)-4-(pyridin-2-yl)benzenesulfonamide]",43.7
6,"O=S(=O)(NCCN1c2ccccc2NS1(=O)=O)c1ccc(OC(F)(F)F)cc1 [Compound 100, N-(2-(2,2-dioxidobenzo[c] [1,2,5]thiadiazol-1(3H)-yl)ethyl)-4-(trifluoromethoxy)benzenesulfonamide]",61
7,"O=S(=O)(NCC1CN(Cc2ccccc2)CC12CCC2)c1ccc(OC(F)(F)F)cc1 (stereo not drawn) [Compound 91, N-((6-benzyl-6-azaspiro[3.4]octan-8-yl)methyl)-4-(trifluoromethoxy)benzenesulfonamide]",28
8,"CCOC(=O)CC(NS(=O)(=O)c1ccc(OC(F)(F)F)cc1)c1ccc(OC(C)C)c(OC)c1 (stereo not drawn) [Compound 68, Ethyl 3-(4-isopropoxy-3-methoxyphenyl)-3-((4-(trifluoromethoxy)phenyl)sulfonamido)propanoate]",72
9,COC(=O)CC(NS(=O)(=O)c1ccc(OC(F)(F)F)cc1)c1ccc(OC)c(Br)c1 (stereo not drawn) [Compound 22],39.1
10,"CC(C)(C)OC(=O)NCC(NS(=O)(=O)c1ccc(OC(F)(F)F)cc1)c1ccc(Cl)c(Cl)c1 (stereo not drawn) [Compound 224, tert-butyl (2-(3,4-dichlorophenyl)-2-((4-(trifluoromethoxy)phenyl)sulfonamido)ethyl)carbamate]",15.9
11,"CCCOc1ccc(S(=O)(=O)NC(CN(C)C)c2ccc(Cl)c(Cl)c2)cc1 (stereo not drawn) [Compound 267, N-(1-(3,4-dichlorophenyl)-2-(dimethylamino)ethyl)-4-propoxybenzenesulfonamide]",23.8
12,"O=S(=O)(N[C@@H](CCO)c1ccccc1)c1ccc(OC(F)(F)F)cc1 [Compound 12, (S)—N-(3-hydroxy-1-phenylpropyl)-4-(trifluoromethoxy)benzenesulfonamide]",34.7
13,"CN(C)CC(NS(=O)(=O)c1cc(F)cc(F)c1)c1ccc(Cl)c(Cl)c1 (stereo not drawn) [Compound 134, N-(1-(3,4-dichlorophenyl)-2-(dimethylamino)ethyl)-3,5-difluorobenzenesulfonamide]",75.6
14,"O=S(=O)(NCC1(CCOCc2ccccc2)CC1)c1ccc(OC(F)(F)F)cc1 [Compound 83, N-((1-(2-(benzyloxy)ethyl)cyclopropyl)methyl)-4-(trifluoromethoxy)benzenesulfonamide]",38
15,"CN(C)CC(NS(=O)(=O)c1ccc(Oc2ccc(C(F)(F)F)cc2)cc1)c1ccc(Cl)c(Cl)c1 (stereo not drawn) [Compound 139, N-(1-(3,4-dichlorophenyl)-2-(dimethylamino)ethyl)-4-(4-(trifluoromethyl)phenoxy)benzenesulfonamide]",10.2
16,"COC(=O)c1cc(S(=O)(=O)NC(CN(C)C)c2ccc(Cl)c(Cl)c2)ccc1OC(F)(F)F (stereo not drawn) [Compound 226, methyl 5-(N-(1-(3,4-dichlorophenyl)-2-(dimethylamino)ethyl)sulfamoyl)-2-(trifluoromethoxy)benzoate]",70.6
17,"CN(C)CC(NS(=O)(=O)c1ccc(-c2ccccc2)cc1)c1ccc(Cl)c(Cl)c1 (stereo not drawn) [Compound 143, N-(1-(3,4-dichlorophenyl)-2-(dimethylamino)ethyl)-[1,1′-biphenyl]-4-sulfonamide]",11.2
18,"O=S(=O)(NCCNS(=O)(=O)c1cc(Br)ccc1Br)c1ccc(OC(F)(F)F)cc1 [Compound 3, 2,5-dibromo-N-(2-((4-(trifluoromethoxy)phenyl)sulfonamido)ethyl)benzenesulfonamide]",24.6

# Same assay, conditions: LNCaP cell line, 48 hours
row,SMILES,GI50 [µM]
1,"CN(C)CC(NS(=O)(=O)c1ccc(Oc2ccccc2)cc1)c1ccc(Cl)c(Cl)c1 (single isomer, unassigned) [Compound 171, N-(1-(3,4-dichlorophenyl)-2-(dimethylamino)ethyl)-4-phenoxybenzenesulfonamide]",15.8

# Tested on: HCC1937 cells
# Test: HCC1937 cell viability assay (MTS)
# Format: cell-based
# Settings: Homo sapiens; HCC1937 cell line, 48 hours, MTS assay (footnote a)
# Description: HCC1937 cells are plated in a 96 well plate format at a density of 10,000 cells per well. After incubation overnight, cells are treated with a compound (e.g., compound 263) at following concentrations: 80, 40, 20, 10, 5, 2.5, 1.25 μM. Compound concentrations are prepared in RPMI via serial dilutions from a starting stock of 80 mM. 48 hours after compound treatment, cell viability is assessed using the Promega CellTiter 96 aqueous one proliferation assay (Promega G3582, MTS assay) according to manufacturer's protocol.
# The cell viability data was analyzed with GraphPad Prism software. The values were log transformed and analyzed with non-linear regression (curve-fit) using log(inhibitor) vs. response-variable slope (four parameters) and constraining the bottom to equal zero. Unless otherwise indicated, the GI50 values provided in Table 113 correspond to the LNCaP cell viability assays.
row,SMILES,GI50 [µM]
1,"O=S(=O)(NCC1(c2ccccc2)CCCN1)c1ccc(OC(F)(F)F)cc1 (stereo not drawn) [Compound 263, N-((2-phenylpyrrolidin-2-yl)methyl)-4-(trifluoromethoxy)benzenesulfonamide]",75.7
